Measurements taken from article PMC5216119, “An allosteric conduit facilitates dynamic multisite substrate recognition by the SCF^Cdc4 ubiquitin ligase” (Nature Communications, 2017).

Tests used:
[1] = target: T1, Cdc4^WD40 (Saccharomyces cerevisiae, UniProt P07834); assay: Isothermal titration calorimetry (ITC) with Cdc4^WD40; set-up: species or system yeast; details: 20 °C, cell 30 μM Cdc4^WD40, syringe 100 μM pSic1 or 200 μM SCF-I2, 50 mM Na2HPO4 pH 7.2, 150 mM NaCl, 2 mM β-mercaptoethanol, single-site model, repeated twice, read-out: Kd value for binding Cdc4^WD40 (ITC)
T1 sequence (P07834 367-744): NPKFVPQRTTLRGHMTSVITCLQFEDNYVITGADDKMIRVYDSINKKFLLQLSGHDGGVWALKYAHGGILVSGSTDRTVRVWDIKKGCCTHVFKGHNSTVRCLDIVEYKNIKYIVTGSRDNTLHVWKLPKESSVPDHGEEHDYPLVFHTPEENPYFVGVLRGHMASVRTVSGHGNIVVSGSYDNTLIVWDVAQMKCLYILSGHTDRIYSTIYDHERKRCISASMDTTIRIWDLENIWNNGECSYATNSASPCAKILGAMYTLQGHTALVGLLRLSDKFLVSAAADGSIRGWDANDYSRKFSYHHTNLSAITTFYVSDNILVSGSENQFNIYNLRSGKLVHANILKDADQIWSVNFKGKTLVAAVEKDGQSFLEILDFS
From the text: We determined the effects of substrate binding on the isolated WD40 domain of Cdc4 (Cdc4^WD40), which is more amenable to NMR due to its size (40 kDa) than the minimal Cdc4-Skp1 complex (∼70 kDa). The N-terminal targeting region of Sic1 (residues 1-90, called Sic1^1-90), which contains 7 of the 9 Sic1 CPD sites and is sufficient for Cdc4 binding, was phosphorylated to completion by Cln2-Cdc28-Cks1 kinase (called pSic1). We used isothermal titration calorimetry (ITC) to determine the affinity of Cdc4^WD40 for pSic1 and SCF-I2 (Supplementary Fig. 1a–c). […] The Kd value for SCF-I2 binding Cdc4^WD40 was 0.6±0.02 μM, concordant with the ∼2 μM Ki value determined for SCF-I2-Cdc4-Skp1 by a fluorescence polarization competition assay.
ITC experiments were performed using VP-ITC and iTC200 microcalorimeters (MicroCal Inc., Northampton, MA) at 20 °C with the sample cell containing 30 μM Cdc4^WD40 and the syringe loaded with 100 μM pSic1 or 200 μM SCF-I2. The samples were dialysed in buffer containing 50 mM Na2HPO4, pH 7.2, 150 mM NaCl, 2 mM β-mercaptoethanol. Runs were performed using 13–20 injections at an interval of 120 s and each binding experiment was repeated twice. Using the Origin software provided by MicroCal Inc., heat associated with each injection was integrated and thermodynamic parameters were extracted by fitting the data to a single-site binding model.

[2] = target: Skp1-Cdc4 complex (Saccharomyces cerevisiae, UniProt P07834+P52286); assay: Fluorescence polarization inhibition by SCF-I2 of Ash1 peptide binding to Skp1-Cdc4; set-up: species or system yeast; details: compared with Ash1^18pT286/pT290 or Ash1^18pT286/pT290/pS294 peptides
Skp1-Cdc4 complex, sequence (P07834 whole entry): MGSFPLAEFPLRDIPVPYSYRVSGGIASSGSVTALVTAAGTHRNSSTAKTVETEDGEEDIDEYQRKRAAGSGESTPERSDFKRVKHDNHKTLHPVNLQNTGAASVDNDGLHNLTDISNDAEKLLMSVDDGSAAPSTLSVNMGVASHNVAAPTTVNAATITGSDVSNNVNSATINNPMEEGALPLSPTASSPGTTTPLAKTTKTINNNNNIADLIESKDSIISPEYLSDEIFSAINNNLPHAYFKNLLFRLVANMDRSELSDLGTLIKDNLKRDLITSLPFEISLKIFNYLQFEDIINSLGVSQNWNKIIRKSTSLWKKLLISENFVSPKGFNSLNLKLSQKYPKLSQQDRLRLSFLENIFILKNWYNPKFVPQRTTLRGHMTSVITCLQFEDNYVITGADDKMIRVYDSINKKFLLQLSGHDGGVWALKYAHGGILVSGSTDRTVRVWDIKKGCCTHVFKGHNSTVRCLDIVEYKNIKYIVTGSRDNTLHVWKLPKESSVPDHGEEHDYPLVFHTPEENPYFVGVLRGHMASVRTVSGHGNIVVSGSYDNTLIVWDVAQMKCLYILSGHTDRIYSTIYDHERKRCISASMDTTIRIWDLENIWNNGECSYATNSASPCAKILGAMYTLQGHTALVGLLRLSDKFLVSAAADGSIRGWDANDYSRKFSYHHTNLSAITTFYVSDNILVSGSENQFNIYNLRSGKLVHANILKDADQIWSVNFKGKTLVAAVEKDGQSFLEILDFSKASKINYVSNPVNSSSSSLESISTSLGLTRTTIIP
Skp1-Cdc4 complex, sequence (P52286 whole entry partner): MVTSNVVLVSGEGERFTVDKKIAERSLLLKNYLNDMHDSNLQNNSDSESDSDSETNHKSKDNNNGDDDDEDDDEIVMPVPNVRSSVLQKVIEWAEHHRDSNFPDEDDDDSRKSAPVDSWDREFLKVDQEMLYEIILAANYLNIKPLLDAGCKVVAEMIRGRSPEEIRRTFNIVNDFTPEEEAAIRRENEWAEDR
From the text: (f) Fluorescence polarization of the fluorescein-labelled Ash1 peptides (circle, pT286/pT290/pS294, square, pT286/pT290, triangle, pT290/pS294, inverted triangle doubly phosphorylated CycE peptide) in the presence of increasing concentrations of the recombinant Skp1-Cdc4 complex (mP, millipolarization unit). (g) Fluorescence polarization of the fluorescein-labelled Ash1 peptides (circle, pT286/pT290/pS294, square, pT286/pT290, triangle, pT290/pS294, inverted triangle, doubly phosphorylated CycE peptide) in the presence of increasing concentrations of the SCF-I2 inhibitor.
Fluorescence polarization assays containing 0.21 μM Skp1-Cdc4 complex and 10 nM fluorescently labelled cyclin E-derived or Ash1-derived phosphopeptides in 10 mM HEPES (pH 7.5), 40 mM NaCl, 0.1 mg ml^−1 BSA and 1 mM DTT in a final volume of 23.5 μl per well were performed on an Analyst HT plate reader (Molecular Devices Corp., Sunnyvale CA).

[3] = target: Cdc4-Skp1; details: read-out: Ki value for SCF-I2-Cdc4-Skp1 by fluorescence polarization competition assay; cited from earlier work
[4] = target: T1, Cdc4^WD40; details: compared to a singly phosphorylated high-affinity CPD of similar affinity for Cdc4; cited from earlier work
From the text: The phenomenon of allostery, whereby ligand binding at one site alters interactions at a physically distant site, allows for complex control of protein function. […] SCF-I2 elicits this allosteric effect through structural changes that occlude the P−2 region of the CPD pocket.

Compound: O=C(O)c1ccc2ccccc2c1-c1c(C(=O)O)ccc2ccccc12 [SCF-I2]
- Kd [1]: 600 ± 20 nM
- fold higher potency of SCF-I2 for inhibiting Ash1^18pT290/pS294 binding [2]: 10 fold
- Ki [3]: ~2000 nM
- fold lower potency of SCF-I2 towards full-length Sic1 [4]: 10 fold
